Assay results: patent US8980823B2, “Formulations of Factor VIIa inhibitors and utility” (priority 2012, dated 2015)
“Also recorded” adds a separate entry of the source.

System: Laser-induced CNV
Assay: Laser-induced Choroidal Neovascularization (CNV) model
Type: in vivo, brown Norway rats
Details: single i-v injection on D0, evaluated D10; r-TFPI 0.2 ug; VIIa-i (Compound A-NO NP) 5.08 ug
Description: For Choroidal Neovascularization (CNV) induction in rats, brown Norway rats were anesthetized and pupils dilated. Argon red laser photocoagulation (50-um spot size, 0.05 sec duration) was used to generate 4 laser spots for each eye surrounding the optic nerve. A bubble forms at the laser spot indicating rupture of Bruch's membrane. The laser spots were evaluated for the presence of CNV on day 10 after laser treatment using confocal microscopy. Administration of test compounds: Immediately after CNV induction, test compounds were given once by intravitreal injection, i-v (VIIa-i versus r-TFPI). For characterization of efficacy in preventing laser-induced CNV in the eyes of rats, the incidence of CNV-positive or CNV-negative spots was determined by confocal microscopy. Rats were perfused with a FITC-dextran solution just prior to sacrifice. After the eyes were excised and choroidal flat mounts prepared, the mounts were stained with a mAb against mouse or rat elastin and then with CY3-conjugated secondary antibody. The prominent neovascular growth stains green whereas the underlying elastin in the Bruch's membrane stains red within the laser spot. The inhibition of new vessel growth is indicated by the absence of vessels with a green stain, and the size of the CNV is measured using Image Pro plus Software. […] Animals were sacrificed on D10, and CNV evaluated as described in methods.

r-TFPI: recombinant tissue factor pathway inhibitor
inhibition of laser-induced CNV: highly effective in inhibiting laser-induced CNV; also recorded: significant reduction in neovascular growth
